# Target: T1, SIRT1 (Homo sapiens, UniProt Q96EB6)
# T1 sequence (Q96EB6 1-747): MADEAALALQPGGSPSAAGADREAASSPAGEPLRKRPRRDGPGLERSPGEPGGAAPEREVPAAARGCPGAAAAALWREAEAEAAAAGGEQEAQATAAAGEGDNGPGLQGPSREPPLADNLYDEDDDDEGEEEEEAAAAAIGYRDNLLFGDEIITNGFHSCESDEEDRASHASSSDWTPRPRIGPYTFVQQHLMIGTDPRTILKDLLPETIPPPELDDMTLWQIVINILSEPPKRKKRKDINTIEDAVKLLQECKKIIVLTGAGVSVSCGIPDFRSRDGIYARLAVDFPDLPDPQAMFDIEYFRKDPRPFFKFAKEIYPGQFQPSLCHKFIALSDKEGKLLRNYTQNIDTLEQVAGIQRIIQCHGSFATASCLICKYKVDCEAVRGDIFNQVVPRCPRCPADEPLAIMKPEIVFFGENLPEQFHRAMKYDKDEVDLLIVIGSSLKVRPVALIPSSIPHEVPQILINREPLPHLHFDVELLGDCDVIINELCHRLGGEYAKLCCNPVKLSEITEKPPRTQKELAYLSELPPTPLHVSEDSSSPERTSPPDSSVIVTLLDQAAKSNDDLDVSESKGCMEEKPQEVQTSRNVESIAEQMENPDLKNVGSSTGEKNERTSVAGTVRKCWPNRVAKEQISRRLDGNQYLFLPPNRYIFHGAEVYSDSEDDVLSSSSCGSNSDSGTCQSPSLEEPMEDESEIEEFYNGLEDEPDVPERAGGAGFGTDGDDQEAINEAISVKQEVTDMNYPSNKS
# Assay: Trp mass spectrometry assay of SIRT1 activation (Ac-R-H-K-K(Ac)-W-NH2 peptide)
# Assay type: biochemical
# Settings: Trp peptide 0.5 μM, 120 μM βNAD+, 10 nM SIRT1, 25 min at 25° C.; for Emax: 25 min, relative to control (100%), read-out: TRP MAX RESP (percent maximum fold activation)
# Procedure: The Trp mass spectrometry assay was conducted as follows. […] The SIRT1 protein was obtained by cloning the SirT1 gene into a T7-promoter containing vector, which was then expressed in BL21(DE3) bacterial cells and purified as described in further detail below. Test compound was added at varying concentrations to this reaction mixture and the resulting reactions were monitored. After the 25 minute incubation with SIRT1, 10 μL of 10% formic acid was added to stop the reaction. The resulting reactions were sealed and frozen for later mass spec analysis. The relative SIRT1 activity was then determined by measuring the amount of O-acetyl-ADP-ribose (OAADPR) formed (or, alternatively, the amount of deacetylated Trp peptide generated) by the NAD-dependent sirtuin deacetylation reaction in the presence of varying concentrations of the test compound versus control reactions lacking the test compound. The degree to which the test agent activated deacetylation by SIRT1 was expressed as EC1.5 (i.e., the concentration of compound required to increase SIRT1 activity by 50% over the control lacking test compound), and Percent Maximum Activation (i.e., the maximum activity relative to control (100%) obtained for the test compound).
# This time point was the same as that used for test compounds and, within the linear range, the endpoint represents a change in velocity.
# For the above assay, SIRT1 protein was expressed and purified as follows. The SirT1 gene was cloned into a T7-promoter containing vector and transformed into BL21(DE3). The protein was expressed by induction with 1 mM IPTG as an N-terminal His-tag fusion protein at 18° C. overnight and harvested at 30,000×g. Cells were lysed with lysozyme in lysis buffer (50 mM Tris-HCl, 2 mM Tris[2-carboxyethyl]phosphine (TCEP), 10 μM ZnCl2, 200 mM NaCl) and further treated with sonication for 10 min for complete lysis. The protein was purified over a Ni-NTA column (Amersham) and fractions containing pure protein were pooled, concentrated and run over a sizing column (Sephadex S200 26/60 global). The peak containing soluble protein was collected and run on an Ion-exchange column (MonoQ). Gradient elution (200 mM-500 mM NaCl) yielded pure protein. This protein was concentrated and dialyzed against dialysis buffer (20 mM Tris-HCl, 2 mM TCEP) overnight. The protein was aliquoted and frozen at −80° C. until further use.
# “NT” means not tested; “ND” means not determinable.
Structure (SMILES),Emax,"TRP Activity (EC1.5, concentration of test compound that results in 150% activation of SIRT1)"
"O=C(NCC(F)(F)F)c1ccc2c(n1)N(C(=O)Nc1cc(OCCO)ccn1)[C@H]1CCN2C1 [Example 161, (4S)—N5-(4-(2-hydroxyethoxy)pyridin-2-yl)-N7-(2,2,2-trifluoroethyl)-3,4-dihydro-1,4-methanopyrido[2,3-b][1,4]diazepine-5,7(2H)-dicarboxamide]",> 150%,A (EC1.5<1 μM)
"Cc1ncc(-c2ccnc(NC(=O)N3c4nc(C(=O)N[C@@H](C)C(F)(F)F)ccc4N4CC[C@H]3C4)c2)o1 [Example 126, (4S)—N5-(4-(2-methyloxazol-5-yl)pyridin-2-yl)-N7-((S)-1,1,1-trifluoropropan-2-yl)-3,4-dihydro-1,4-methanopyrido[2,3-b][1,4]diazepine-5,7(2H)-dicarboxamide]",> 150%,B (EC1.5 1-25 μM)
"C[C@@H](NC(=O)c1ccc2c(n1)N(C(=O)Nc1cccnn1)[C@H]1CCN2C1)C(F)(F)F [Example 77, (4S)—N5-(pyridazin-3-yl)-N7-((R)-1,1,1-trifluoropropan-2-yl)-3,4-dihydro-1,4-methanopyrido[2,3-b][1,4]diazepine-5,7(2H)-dicarboxamide]",> 150%,A (EC1.5<1 μM)
"O=C(NCc1ccccc1)c1ccc2c(n1)N(C(=O)Nc1ccccn1)[C@H]1CCN2C1 [Example 106, (4S)—N7-benzyl-N5-(pyridin-2-yl)-3,4-dihydro-1,4-methanopyrido[2,3-b][1,4]diazepine-5,7(2H)-dicarboxamide]",> 150%,A (EC1.5<1 μM)
"O=C(NCC(F)(F)CO)c1ccc2c(n1)N(C(=O)Nc1ccccn1)[C@H]1CCN2C1 [Example 117, (4S)—N7-(2,2-difluoro-3-hydroxypropyl)-N5-(pyridin-2-yl)-3,4-dihydro-1,4-methanopyrido[2,3-b][1,4]diazepine-5,7(2H)-dicarboxamide]",> 150%,A (EC1.5<1 μM)
"C#CCNC(=O)c1ccc2c(n1)N(C(=O)Nc1ccccn1)[C@H]1CCN2C1 [Example 99, (4S)—N7-(prop-2-yn-1-yl)-N5-(pyridin-2-yl)-3,4-dihydro-1,4-methanopyrido[2,3-b][1,4]diazepine-5,7(2H)-dicarboxamide]",> 150%,A (EC1.5<1 μM)
"O=C(N[C@H](CO)C(F)(F)F)c1ccc2c(n1)N(C(=O)Nc1cnccn1)[C@H]1CCN2C1 (single isomer, unassigned) [Example 119]",> 150%,A (EC1.5<1 μM)
"O=C(NC1CC1)c1ccc2c(n1)N(C(=O)Nc1cc(-c3cnco3)ccn1)[C@H]1CCN2C1 [Example 78, (4S)—N7-cyclopropyl-N5-(4-(oxazol-5-yl)pyridin-2-yl)-3,4-dihydro-1,4-methanopyrido[2,3-b][1,4]diazepine-5,7(2H)-dicarboxamide]",> 150%,A (EC1.5<1 μM)
"NC(=O)c1ccc(NC(=O)N2c3nc(C(=O)NCC(F)(F)F)ccc3N3CC[C@H]2C3)nc1 [Example 143, (4S)—N5-(5-carbamoylpyridin-2-yl)-N7-(2,2,2-trifluoroethyl)-3,4-dihydro-1,4-methanopyrido[2,3-b][1,4]diazepine-5,7(2H)-dicarboxamide]",> 150%,A (EC1.5<1 μM)

# Other lines, results leading:
Emax,"TRP Activity (EC1.5, concentration of test compound that results in 150% activation of SIRT1)",Structure (SMILES)
> 150%,A (EC1.5<1 μM),"C[C@@H](NC(=O)c1nc2c(cc1Cl)N1CC[C@@H](C1)N2C(=O)Nc1cc(-c2cnco2)ccn1)C(F)(F)F [Example 282, (4S)-8-chloro-N5-(4-(oxazol-5-yl)pyridin-2-yl)-N7-((R)-1,1,1-trifluoropropan-2-yl)-3,4-dihydro-1,4-methanopyrido[2,3-b][1,4]diazepine-5,7(2H)-dicarboxamide]"
> 150%,B (EC1.5 1-25 μM),"C[C@H](O)CNC(=O)c1ccc2c(n1)N(C(=O)Nc1ccccn1)[C@H]1CCN2C1 [Example 211, (4S)—N7-((S)-2-hydroxypropyl)-N5-(pyridin-2-yl)-3,4-dihydro-1,4-methanopyrido[2,3-b][1,4]diazepine-5,7(2H)-dicarboxamide]"
< 150%,A (EC1.5<1 μM),"Cc1cc(C(=O)N[C@H](C)C(F)(F)F)nc2c1N1CC[C@@H](C1)N2C(=O)Nc1cc(OC[C@H](O)CO)ccn1 [Example 292, (4S)—N5-(4-((R)-2,3-dihydroxypropoxy)pyridin-2-yl)-9-methyl-N7-((R)-1,1,1-trifluoropropan-2-yl)-3,4-dihydro-1,4-methanopyrido[2,3-b][1,4]diazepine-5,7(2H)-dicarboxamide]"
> 150%,A (EC1.5<1 μM),"C[C@@H](NC(=O)c1ccc2c(n1)N(C(=O)Nc1cc(-n3ccnn3)ccn1)[C@H]1CCN2C1)C(F)(F)F [Example 182, (4S)—N5-(4-(1H-1,2,3-triazol-1-yl)pyridin-2-yl)-N7-((R)-1,1,1-trifluoropropan-2-yl)-3,4-dihydro-1,4-methanopyrido[2,3-b][1,4]diazepine-5,7(2H)-dicarboxamide]"
> 150%,A (EC1.5<1 μM),"N[C@H](CNC(=O)c1ccc2c(n1)N(C(=O)Nc1ncccn1)[C@H]1CCN2C1)C(F)(F)F (single isomer, unassigned) [Example 235]"
> 150%,B (EC1.5 1-25 μM),"O=C(NCC1CC1)c1ccc2c(n1)N(C(=O)Nc1ccncn1)[C@H]1CCN2C1 [Example 219, (4S)—N7-(cyclopropylmethyl)-N5-(pyrimidin-4-yl)-3,4-dihydro-1,4-methanopyrido[2,3-b][1,4]diazepine-5,7(2H)-dicarboxamide]"
< 150%,A (EC1.5<1 μM),"C[C@@H](NC(=O)c1ccc2c(n1)N(C(=O)Nc1cc(O)ccn1)[C@H]1CCN2C1)C(F)(F)F [Example 301, (4S)—N5-(4-hydroxypyridin-2-yl)-N7-((R)-1,1,1-trifluoropropan-2-yl)-3,4-dihydro-1,4-methanopyrido[2,3-b][1,4]diazepine-5,7(2H)-dicarboxamide]"
> 150%,A (EC1.5<1 μM),"C[C@@H](NC(=O)c1ccc2c(n1)N(C(=O)Nc1cc3nc[nH]c3cn1)[C@H]1CCN2C1)C(F)(F)F [Example 192, (4S)—N5-(3H-imidazo[4,5-c]pyridin-6-yl)-N7-((R)-1,1,1-trifluoropropan-2-yl)-3,4-dihydro-1,4-methanopyrido[2,3-b][1,4]diazepine-5,7(2H)-dicarboxamide]"
> 150%,A (EC1.5<1 μM),"CNC(=O)c1ccc(NC(=O)N2c3nc(C(=O)NCC(F)(F)F)ccc3N3CC[C@H]2C3)nc1 [Example 168, (4S)—N5-(5-(methylcarbamoyl)pyridin-2-yl)-N7-(2,2,2-trifluoroethyl)-3,4-dihydro-1,4-methanopyrido[2,3-b][1,4]diazepine-5,7(2H)-dicarboxamide]"
